Reference: ChEMBL document CHEMBL4507291 (2021)

Tests used:
[1] = target: Tyrosine-protein kinase Fer (Homo sapiens) (UniProt P16591)
[2] = tested on: Tyrosine-protein kinase ABL1 (Homo sapiens), P00519 [Y253F]
[3] = target: Ankyrin repeat and protein kinase domain-containing protein 1 (Homo sapiens) (UniProt Q8NFD2)
[4] = target: Cyclin-dependent kinase-like 3 (Homo sapiens) (UniProt Q8IVW4)
[5] = tested on: Mast/stem cell growth factor receptor Kit (Homo sapiens), P10721 [D816H]
[6] = target: T1, MAP kinase-activated protein kinase 5 (Homo sapiens) (UniProt Q8IW41)
T1 sequence (whole entry): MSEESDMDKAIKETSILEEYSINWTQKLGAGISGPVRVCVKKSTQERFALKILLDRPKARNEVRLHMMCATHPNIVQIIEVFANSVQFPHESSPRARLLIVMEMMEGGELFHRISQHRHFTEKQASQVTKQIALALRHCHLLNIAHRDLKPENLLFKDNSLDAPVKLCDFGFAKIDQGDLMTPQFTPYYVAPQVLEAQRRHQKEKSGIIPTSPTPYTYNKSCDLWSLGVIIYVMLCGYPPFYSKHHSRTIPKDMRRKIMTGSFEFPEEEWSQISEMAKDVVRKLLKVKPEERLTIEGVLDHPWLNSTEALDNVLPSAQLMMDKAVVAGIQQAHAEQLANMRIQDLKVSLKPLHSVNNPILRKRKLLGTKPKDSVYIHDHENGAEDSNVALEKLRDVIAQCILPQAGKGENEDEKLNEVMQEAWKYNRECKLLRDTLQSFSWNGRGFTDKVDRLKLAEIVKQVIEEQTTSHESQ

[7] = target: Serine/threonine-protein kinase 26 (Homo sapiens) (UniProt Q9P289)
[8] = target: Tyrosine-protein kinase Srms (Homo sapiens) (UniProt Q9H3Y6)
[9] = target: Dual specificity mitogen-activated protein kinase kinase 1 (Homo sapiens) (UniProt Q02750)
[10] = target: T2, Discoidin domain-containing receptor 2 (Homo sapiens) (UniProt Q16832)
T2 sequence (whole entry): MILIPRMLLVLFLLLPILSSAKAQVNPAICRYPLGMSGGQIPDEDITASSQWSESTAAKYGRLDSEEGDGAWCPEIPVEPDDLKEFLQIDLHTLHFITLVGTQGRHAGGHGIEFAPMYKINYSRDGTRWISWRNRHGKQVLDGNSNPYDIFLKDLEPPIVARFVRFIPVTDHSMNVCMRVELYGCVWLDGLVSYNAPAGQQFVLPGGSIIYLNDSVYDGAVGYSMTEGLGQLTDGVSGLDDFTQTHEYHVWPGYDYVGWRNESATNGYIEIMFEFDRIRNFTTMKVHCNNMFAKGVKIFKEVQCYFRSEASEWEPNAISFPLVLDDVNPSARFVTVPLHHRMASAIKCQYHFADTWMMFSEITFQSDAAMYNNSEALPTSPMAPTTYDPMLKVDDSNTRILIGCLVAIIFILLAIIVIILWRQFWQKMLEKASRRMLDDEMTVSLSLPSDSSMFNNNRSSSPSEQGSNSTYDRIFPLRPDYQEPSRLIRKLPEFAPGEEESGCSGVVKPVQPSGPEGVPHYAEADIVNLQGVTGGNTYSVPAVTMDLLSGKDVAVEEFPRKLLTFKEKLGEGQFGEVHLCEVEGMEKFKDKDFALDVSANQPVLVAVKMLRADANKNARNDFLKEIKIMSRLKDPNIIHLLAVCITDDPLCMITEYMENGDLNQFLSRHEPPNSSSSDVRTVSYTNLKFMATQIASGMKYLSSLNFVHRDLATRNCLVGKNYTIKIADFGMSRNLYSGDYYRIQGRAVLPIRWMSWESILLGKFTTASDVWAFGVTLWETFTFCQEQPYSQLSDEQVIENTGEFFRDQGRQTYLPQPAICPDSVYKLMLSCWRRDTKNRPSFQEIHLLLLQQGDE

[11] = target: Wee1-like protein kinase (Homo sapiens) (UniProt P30291)
Chain of Wee1-like protein kinase (Homo sapiens) (P30291 whole entry, looked up): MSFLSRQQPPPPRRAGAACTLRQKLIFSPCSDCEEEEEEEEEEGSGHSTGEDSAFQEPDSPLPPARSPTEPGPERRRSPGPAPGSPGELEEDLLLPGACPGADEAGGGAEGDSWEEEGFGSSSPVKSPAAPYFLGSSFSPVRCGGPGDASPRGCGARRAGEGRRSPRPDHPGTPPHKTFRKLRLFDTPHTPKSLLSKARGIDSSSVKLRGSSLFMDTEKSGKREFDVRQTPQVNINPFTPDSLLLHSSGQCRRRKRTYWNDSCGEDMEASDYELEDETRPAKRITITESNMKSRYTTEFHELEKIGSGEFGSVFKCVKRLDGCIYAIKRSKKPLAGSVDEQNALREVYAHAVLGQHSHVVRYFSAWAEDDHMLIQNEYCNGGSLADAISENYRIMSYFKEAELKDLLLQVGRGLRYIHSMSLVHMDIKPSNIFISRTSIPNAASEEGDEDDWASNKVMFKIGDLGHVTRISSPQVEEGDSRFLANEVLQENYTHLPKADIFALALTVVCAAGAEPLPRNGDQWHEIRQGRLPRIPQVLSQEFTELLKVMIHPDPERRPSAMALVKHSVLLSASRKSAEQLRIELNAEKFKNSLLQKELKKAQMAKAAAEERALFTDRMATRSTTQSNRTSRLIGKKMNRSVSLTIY

[12] = target: Serine/threonine-protein kinase PLK4 (Homo sapiens) (UniProt O00444)
Chain of Serine/threonine-protein kinase PLK4 (Homo sapiens) (O00444 whole entry): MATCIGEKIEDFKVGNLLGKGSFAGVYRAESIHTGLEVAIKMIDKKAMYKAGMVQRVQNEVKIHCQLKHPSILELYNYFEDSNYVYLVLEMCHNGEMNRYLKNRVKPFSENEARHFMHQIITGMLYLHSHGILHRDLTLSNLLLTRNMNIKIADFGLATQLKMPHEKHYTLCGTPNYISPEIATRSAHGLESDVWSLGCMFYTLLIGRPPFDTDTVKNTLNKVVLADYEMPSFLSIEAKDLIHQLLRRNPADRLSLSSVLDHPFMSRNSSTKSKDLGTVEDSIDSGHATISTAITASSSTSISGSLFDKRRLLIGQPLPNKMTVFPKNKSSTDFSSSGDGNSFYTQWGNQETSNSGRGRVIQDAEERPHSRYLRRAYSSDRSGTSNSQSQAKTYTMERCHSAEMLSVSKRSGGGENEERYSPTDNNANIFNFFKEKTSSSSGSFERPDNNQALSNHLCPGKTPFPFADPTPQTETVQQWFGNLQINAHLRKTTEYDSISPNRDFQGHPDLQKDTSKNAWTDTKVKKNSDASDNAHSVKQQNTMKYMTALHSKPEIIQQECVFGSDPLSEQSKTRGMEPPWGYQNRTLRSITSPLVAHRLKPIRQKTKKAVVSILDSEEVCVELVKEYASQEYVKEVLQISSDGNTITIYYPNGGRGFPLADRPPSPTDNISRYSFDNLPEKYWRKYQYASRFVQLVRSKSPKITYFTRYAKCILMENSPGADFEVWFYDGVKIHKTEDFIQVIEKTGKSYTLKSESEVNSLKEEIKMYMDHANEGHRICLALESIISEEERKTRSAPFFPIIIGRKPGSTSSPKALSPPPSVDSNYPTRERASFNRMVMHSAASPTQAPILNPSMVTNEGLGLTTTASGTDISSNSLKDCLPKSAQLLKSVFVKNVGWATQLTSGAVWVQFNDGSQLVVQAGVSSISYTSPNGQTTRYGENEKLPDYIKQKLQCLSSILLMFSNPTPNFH

[13] = target: T3, Tyrosine-protein kinase ZAP-70 (Homo sapiens) (UniProt P43403)
T3 sequence (whole entry): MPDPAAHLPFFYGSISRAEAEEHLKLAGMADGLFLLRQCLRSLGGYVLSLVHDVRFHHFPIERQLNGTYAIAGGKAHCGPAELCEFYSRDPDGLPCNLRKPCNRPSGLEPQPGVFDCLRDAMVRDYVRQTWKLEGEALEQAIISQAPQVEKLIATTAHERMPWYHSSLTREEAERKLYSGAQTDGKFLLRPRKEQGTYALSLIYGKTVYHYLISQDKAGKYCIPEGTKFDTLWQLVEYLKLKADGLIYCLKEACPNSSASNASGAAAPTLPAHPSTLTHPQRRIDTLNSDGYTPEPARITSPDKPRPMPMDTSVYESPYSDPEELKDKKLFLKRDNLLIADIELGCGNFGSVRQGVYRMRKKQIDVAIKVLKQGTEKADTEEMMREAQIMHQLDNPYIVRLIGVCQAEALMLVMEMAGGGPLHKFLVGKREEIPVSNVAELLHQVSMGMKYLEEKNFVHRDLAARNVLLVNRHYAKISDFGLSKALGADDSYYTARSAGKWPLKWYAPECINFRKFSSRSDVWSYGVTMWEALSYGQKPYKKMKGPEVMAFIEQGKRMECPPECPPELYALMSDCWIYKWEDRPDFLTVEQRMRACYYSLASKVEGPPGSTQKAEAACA

[14] = target: Ribosomal protein S6 kinase alpha-2 (Homo sapiens) (UniProt Q15349)
Chain of Ribosomal protein S6 kinase alpha-2 (Homo sapiens) (Q15349 whole entry): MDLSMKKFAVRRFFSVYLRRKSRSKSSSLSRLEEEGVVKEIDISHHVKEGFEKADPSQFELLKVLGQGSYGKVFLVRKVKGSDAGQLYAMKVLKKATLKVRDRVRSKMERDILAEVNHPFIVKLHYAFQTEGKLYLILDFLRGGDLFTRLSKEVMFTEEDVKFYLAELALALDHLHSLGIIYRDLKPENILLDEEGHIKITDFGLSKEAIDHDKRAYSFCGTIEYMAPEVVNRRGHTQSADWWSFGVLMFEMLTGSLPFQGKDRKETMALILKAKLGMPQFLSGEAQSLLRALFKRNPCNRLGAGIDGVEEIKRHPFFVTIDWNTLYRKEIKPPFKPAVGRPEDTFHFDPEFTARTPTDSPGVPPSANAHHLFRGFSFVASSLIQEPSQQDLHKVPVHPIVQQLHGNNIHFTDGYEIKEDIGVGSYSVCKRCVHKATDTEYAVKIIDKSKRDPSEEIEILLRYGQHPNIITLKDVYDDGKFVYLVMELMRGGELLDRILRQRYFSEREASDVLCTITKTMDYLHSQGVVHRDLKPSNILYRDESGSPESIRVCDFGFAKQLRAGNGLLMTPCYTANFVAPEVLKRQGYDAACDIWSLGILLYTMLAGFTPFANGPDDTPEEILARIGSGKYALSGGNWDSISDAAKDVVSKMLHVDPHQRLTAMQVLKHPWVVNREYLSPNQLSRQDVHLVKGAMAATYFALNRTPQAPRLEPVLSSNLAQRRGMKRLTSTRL

[15] = target: Tyrosine-protein kinase ABL2 (Homo sapiens) (UniProt P42684)
[16] = target: Protein kinase C delta type (Homo sapiens) (UniProt Q05655)
Chain of Protein kinase C delta type (Homo sapiens) (Q05655 whole entry, looked up): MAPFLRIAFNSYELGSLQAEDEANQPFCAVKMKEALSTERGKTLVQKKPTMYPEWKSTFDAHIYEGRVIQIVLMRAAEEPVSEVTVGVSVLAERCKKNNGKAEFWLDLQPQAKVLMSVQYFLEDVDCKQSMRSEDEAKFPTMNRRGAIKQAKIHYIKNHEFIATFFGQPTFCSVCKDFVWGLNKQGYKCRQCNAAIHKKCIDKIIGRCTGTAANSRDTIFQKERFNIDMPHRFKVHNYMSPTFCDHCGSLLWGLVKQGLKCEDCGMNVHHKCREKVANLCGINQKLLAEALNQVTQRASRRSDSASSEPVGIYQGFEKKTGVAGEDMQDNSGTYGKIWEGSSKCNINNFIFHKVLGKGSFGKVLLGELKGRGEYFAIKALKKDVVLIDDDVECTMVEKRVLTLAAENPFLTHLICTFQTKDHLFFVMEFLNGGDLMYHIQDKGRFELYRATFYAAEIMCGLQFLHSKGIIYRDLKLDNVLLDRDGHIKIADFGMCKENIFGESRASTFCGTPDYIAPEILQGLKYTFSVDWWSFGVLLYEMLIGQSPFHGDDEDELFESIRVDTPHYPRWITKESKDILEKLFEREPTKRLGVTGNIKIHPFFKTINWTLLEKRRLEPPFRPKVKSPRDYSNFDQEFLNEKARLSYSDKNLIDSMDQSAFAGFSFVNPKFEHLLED

[17] = target: Calcium/calmodulin-dependent protein kinase type II subunit delta (Homo sapiens) (UniProt Q13557)
[18] = target: Membrane-associated tyrosine- and threonine-specific cdc2-inhibitory kinase (Homo sapiens) (UniProt Q99640)
Chain of Membrane-associated tyrosine- and threonine-specific cdc2-inhibitory kinase (Homo sapiens) (Q99640 whole entry): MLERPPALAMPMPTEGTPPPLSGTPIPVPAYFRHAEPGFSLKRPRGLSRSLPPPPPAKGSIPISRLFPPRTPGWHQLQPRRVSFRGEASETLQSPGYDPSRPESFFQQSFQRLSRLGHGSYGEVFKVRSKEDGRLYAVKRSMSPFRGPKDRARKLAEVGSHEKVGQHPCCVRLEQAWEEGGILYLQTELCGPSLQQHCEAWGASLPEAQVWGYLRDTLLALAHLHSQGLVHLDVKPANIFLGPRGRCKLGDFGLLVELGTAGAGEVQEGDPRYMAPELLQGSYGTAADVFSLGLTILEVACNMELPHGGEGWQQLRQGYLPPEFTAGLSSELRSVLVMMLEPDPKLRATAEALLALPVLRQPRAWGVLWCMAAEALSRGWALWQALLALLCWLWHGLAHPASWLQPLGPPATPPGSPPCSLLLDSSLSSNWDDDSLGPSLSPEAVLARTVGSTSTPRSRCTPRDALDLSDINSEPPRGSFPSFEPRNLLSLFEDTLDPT

[19] = target: Serine/threonine-protein kinase STK11 (Homo sapiens) (UniProt Q15831)
[20] = Compound concentration 100.0 nM
[21] = Compound concentration 1000.0 nM

Measured: residual activity

Chain of Cyclin-dependent kinase-like 3 (Homo sapiens) (Q8IVW4 whole entry, looked up): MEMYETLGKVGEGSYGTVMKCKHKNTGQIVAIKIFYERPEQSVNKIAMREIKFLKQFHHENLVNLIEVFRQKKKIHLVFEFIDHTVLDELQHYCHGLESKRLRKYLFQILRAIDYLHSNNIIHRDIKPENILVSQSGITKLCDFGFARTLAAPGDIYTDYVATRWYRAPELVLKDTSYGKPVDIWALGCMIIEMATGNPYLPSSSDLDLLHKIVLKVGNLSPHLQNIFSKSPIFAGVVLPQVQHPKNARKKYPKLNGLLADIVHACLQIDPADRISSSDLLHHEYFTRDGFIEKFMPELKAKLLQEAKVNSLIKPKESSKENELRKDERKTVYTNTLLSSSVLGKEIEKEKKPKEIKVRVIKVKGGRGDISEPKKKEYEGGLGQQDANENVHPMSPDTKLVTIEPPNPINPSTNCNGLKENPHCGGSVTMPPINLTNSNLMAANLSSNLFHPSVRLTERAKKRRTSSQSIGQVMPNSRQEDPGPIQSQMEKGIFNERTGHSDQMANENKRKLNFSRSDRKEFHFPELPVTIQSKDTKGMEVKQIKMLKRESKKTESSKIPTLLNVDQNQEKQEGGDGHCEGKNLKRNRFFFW
Chain of Tyrosine-protein kinase Fer (Homo sapiens) (P16591 whole entry, looked up): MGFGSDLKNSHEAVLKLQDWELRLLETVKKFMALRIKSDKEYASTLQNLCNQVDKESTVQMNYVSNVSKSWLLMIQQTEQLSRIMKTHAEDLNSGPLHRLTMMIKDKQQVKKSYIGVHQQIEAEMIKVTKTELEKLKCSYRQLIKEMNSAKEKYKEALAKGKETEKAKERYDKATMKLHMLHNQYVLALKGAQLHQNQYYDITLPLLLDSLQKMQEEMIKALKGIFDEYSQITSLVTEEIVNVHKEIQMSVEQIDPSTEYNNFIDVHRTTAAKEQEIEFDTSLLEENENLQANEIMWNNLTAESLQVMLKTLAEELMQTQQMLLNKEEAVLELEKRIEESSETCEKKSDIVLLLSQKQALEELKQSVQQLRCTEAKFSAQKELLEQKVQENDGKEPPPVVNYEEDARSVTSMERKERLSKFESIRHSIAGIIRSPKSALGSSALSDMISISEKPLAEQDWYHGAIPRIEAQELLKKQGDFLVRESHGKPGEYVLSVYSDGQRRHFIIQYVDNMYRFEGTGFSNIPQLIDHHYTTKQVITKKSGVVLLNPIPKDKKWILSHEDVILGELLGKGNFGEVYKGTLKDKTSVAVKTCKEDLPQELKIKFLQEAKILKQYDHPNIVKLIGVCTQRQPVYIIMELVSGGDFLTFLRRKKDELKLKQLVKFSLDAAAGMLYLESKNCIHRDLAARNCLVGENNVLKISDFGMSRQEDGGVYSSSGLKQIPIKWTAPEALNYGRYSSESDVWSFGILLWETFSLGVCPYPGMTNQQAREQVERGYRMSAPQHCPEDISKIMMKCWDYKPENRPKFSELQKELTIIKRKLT

C[C@@H]1CN(c2cc(-c3n[nH]c4ccc(OC5(C)CC5)cc34)ncn2)C[C@H](C)O1 [MLi-2]
inactive: [1]; [20] 86% | [2]; [20] 66% | [3]; [20] 79% | [4]; [20] 75% | [5]; [20] 67% | [6]; [20] 93% | [7]; [20] 76% | [8]; [20] 59% | [9]; [20] 88% | [10]; [20] 82% | [11]; [20] 97% | [12]; [20] 71% | [13]; [20] 83% | [14]; [20] 100% | [15]; [20] 73% | [16]; [20] 100% | [17]; [20] 100% | [18]; [20] 96% | [19]; [20] 83%

C[C@@H]1CN(c2cc(-c3nn(C)c4ccc(OC5(C)CC5)cc34)ncn2)C[C@H](C)O1 [MLi-2-NC]
inactive: [1]; [21] 100% | [2]; [21] 80% | [3]; [21] 67% | [4]; [21] 88% | [5]; [21] 64% | [6]; [21] 73% | [7]; [21] 74% | [8]; [21] 83% | [9]; [21] 74% | [10]; [21] 79% | [11]; [21] 100% | [12]; [21] 65% | [13]; [21] 100% | [14]; [21] 100% | [15]; [21] 100% | [16]; [21] 100% | [17]; [21] 88% | [18]; [21] 100% | [19]; [21] 94%
